# Patent EP3694851B1, “ENVIRONMENTALLY DEGRADABLE QUINOLONE ANTIBIOTICS HAVING A HEMIAMINAL STRUCTURAL UNIT” (priority 2017, dated 2019)
# Tests used:
# [1] = test system: E. faecalis ATCC 29121, P. aeruginosa ATCC 27853, S. aureus ATCC 29213, E. coli ATCC 25922, S. aureus ATCC 43300, K. pneumoniae ATCC 700603, A. baumanii ATCC …; assay: Minimal inhibitory concentrations in various bacterial strains (broth microdilution); type: cell-based
# Source text: Minimale Hemmkonzentrationen in verschiedenen Bakterienstämmen: Die antibiotische Aktivität wurde mittels Durchführung der Broth-Mikroverdünnungsmethode ermittelt (Cockerill et al., 2012, siehe Literatur). Es wurden die folgenden Bakterienstämme verwendet: Staphylococcus aureus (ATCC 29213), Enterococcus faecalis (ATCC 29212), Escherichia coli (ATCC 25922) und Pseudomonas aeruginosa (ATCC 27853), sowie S. aureus (ATCC 43300), K. pneumoniae (ATCC 700603), A. baumanii (ATCC 19606). Die Bestimmungen der minimalen Hemmkonzentrationen wurden durch zwei unabhängige Laboratorien durchgeführt.
# Bakterienzellen wurden bei einer Zelldichte von 2 - 8 × 10^5 cfu/ml in 200 µl Mueller-Hinton-Brothmedium verdünnt. Die Ansätze enthielten eine Verdünnungsreihe der Testsubstanzen. Diese inokulierten 96-well Platten wurden für 18 h bei 36°C inkubiert. Die minimale Hemmkonzentration wurde ermittelt durch visuelle Abschätzung der niedrigsten Konzentration, die die Bakterien vollständig gehemmt hatte.
# [2] = test system: Vibrio fischeri NRRL-B-11177; assay: Luminescence inhibition in V. fischeri (luminescent bacteria test); type: cell-based; details: after cleavage of the linker, compared with Verbindung 1; Figure 5
# Source text: Die antibiotische Aktivität in V. fischeri wurden in einem Leuchtbakterientest (LBT) mit Vibrio fischeri NRRL-B-11177 (Hach-Lange GmbH, Düsseldorf, Germany) untersucht. Die Durchführung des LBT erfolgte nach dem modifizierten Protokoll von Menz et al. (2013), siehe Literaturliste.
# [3] = Abiotic hydrolysis (pH-dependent, phosphate-buffered saline, HPLC); details: for Abspaltung des labilen Linkers: Figures 6a and 6b; for Abbau des Hemiaminal-Restes: within 7 days
# Method: Der pH-Wert wurde auf pH 6, pH 7,4 oder pH 9 eingestellt. Die Ansätze wurden bei 37 °C für pH 6 und 7,4 und bei Raumtemperatur für pH 9 unter Schütteln (250 rpm) für 28 Tage inkubiert. An Tag 0, 1, 7, 14, 21 und 28 wurden Proben (700µL) für die HPLC Analyse entnommen. Der Quotient der Ausgangskonzentration co durch die Konzentration am jeweiligen Zeitpunkt (ct) wurde kalkuliert und als natürlicher Logarithmus gegen die Inkubationszeit aufgetragen.
# Eine NUCLEODUR® RP-C18 (CC 125/4 100-5µm C18 ec) Säule und mobile Phasen bestehend aus 0.1 % Ameisensäure in hochreinem Wasser (CH2O2: Solution A) and 100 % Acetonitril (CH3CN: Solution B) wurden verwendet. Die Flußrate wurde auf 0.5 mL min^-1 eingestellt. Die Temperatur des Säulenofens wurde auf 25 °C eingestellt und das Injektionsvolumen betrug 10 µL. […] Die Testsubstanzen wurden durch einen UV/Vis Detektor bei 270 nm detektiert. Die Fließgradientenmethode wurde angewendet wie in Tabelle 1 aufgelistet. Tabelle 1 : Fließgradientenbedingungen zur chromatographischen Analyse der Testsubstanzen
# [4] = test system: Escherichia coli K12 ATCC 23716; assay: Growth inhibition in E. coli (96-well plate, 4 h at 37°C, absorption at 600 nm); type: cell-based; details: ATCC23716, 4 h, E. coli (ATCC 23716), activity in the range of medium-strength fluoroquinolones, Figure 4
# Method: Escherichia coli K12 ATCC 23716 wurde von DSMZ GmbH (Braunschweig, Germany) erhalten.
# Die Testsubstanzen wurden in Wasser verdünnt und auf einer 96-well-Platte zur Bakteriensuspension (in 2x Bakterienmedium (10 g Pepton and 6 g Fleischextrakt in 1 Liter)) gegeben, so dass die Endkonzentration des Mediums 1x war. Die Platte wurde 4h bei 37°C inkubiert. Die Zelldichte wurde photometrisch durch Messung der Absorption bei 600 nm bestimmt. Die Wachstumshemmung in Prozent der unbehandelten Kontrollen gegen die Konzentration der Testsubstanz aufgetragen.
# [5] = test system: Humane embryonale Nierenzellen (HEK293); assay: Cytotoxicity test in HEK293 cells; type: cell-based, human; details: Figure 3
# Method: Humane embryonale Nierenzellen (HEK293) wurden in 384-well-Platten mit einer Dichte von 6000 Zellen/well in einem finalen Volumen von 50 µl mit der gewünschten Konzentration der Testsubstanz ausgesät. DMEM mit 10% fötalem Rinderserum (FBS) wurde als Wachstumsmedium verwendet. Die Zellen wurden zusammen mit den Testsubstanzen für 20 h bei 37 °C mit 5% COz inkubiert.
# [6] = Stability test at low pH (Marbofloxacin); type: physicochemical
compound,measurement,setting,value
"O=C(O)c1cnc2cc(N3CCNCC3)c(F)cc2c1O [Cip-d-CP, reference compound]",antibiotische Aktivität (MHK) im Vergleich zur Ausgangssubstanz,"[1]; fragment after cleavage of the linker compared with Verbindung 1, Figures 2 and 3",deutlich schwächer aktiv als die Ausgangssubstanz
same,antibiotische Aktivität in V. fischeri (Leuchthemmung),[2],deutliche Abschwächung der antibiotischen Aktivität nach Abspaltung des Linkers
same,Instabilität unter den gewählten pH-Bedingungen,"[3]; chosen pH conditions (pH 6, pH 7,4 at 37°C; pH 9 at room temperature; 28 days)",Weder das verbleibende Fragment noch die Ausgangssubstanz Ciprofloxacin waren unter den gewählten pH-Bedingungen instabil
O=C(O)c1cn(C2CCCO2)c2cc(N3CCNCC3)c(F)cc2c1=O (stereo not drawn) [Verbindung 1],MIC,[4],0.1 to 1 µg/mL
same,Aktivität in anderen pathogenen Bakterien,"[1]; other pathogenic bacteria, compared with quinolone generations","über den Chinolonen der ersten Generation, aber unterhalb etablierter Fluorchinolone der zweiten Generation"
same,antibakterielle Aktivität,"[1]; strains of E. coli, K. pneumoniae, P. aeruginosa and V. fischeri, compared with medium-strength fluoroquinolones",zu mittelstarken Fluorchinolonen eine vergleichbare antibakterielle Aktivität
same,Abspaltung des labilen Linkers,[3]; at low pH,schnell
same,Abbau des Hemiaminal-Restes,[3]; low pH of four (e.g. in urine),zum größten Teil abgebaut
same,Abbau des Hemiaminal-Restes,"[3]; physiological conditions (pH= 7,4)",nur langsam abgebaut
same,Abspaltung des labilen Linkers,[3]; under physiological conditions,langsam
same,Zytotoxizität in humanen Zellen (HEK 293),[5],keine Hinweise auf einen Zytotoxizität
CN1CCN(c2c(F)cc3c(=O)c(C(=O)O)cn4c3c2OCN4C)CC1 [Marbofloxacin],Instabilität bei niedrigem pH,[6],kaum Instabilität beobachtet
